Test results as given in ChEMBL document CHEMBL1201862, “PubChem BioAssay data set” (2004).
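Dose response: 5 concentrations. Exposure: 48 h. Format: 96-well plates. Endpoint: linear interpolation; highest concentration if not reached. GI50: concentration for 50% inhibition of growth.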 Active and inactive are the calls of the source. Cut-off read from the data, not from the text of the source: active = GI50 up to about 1.1 µM and inactive = higher.

Key:
Assay in all cases: NCI anticancer screen, dose series, 48 h
A498 = tested on: A498
COLO 205 = tested on: COLO 205
HCC 2998 = tested on: HCC 2998
HOP-62 = tested on: HOP-62
HT-29 = tested on: HT-29
KM12 = tested on: KM12
MOLT-4 = tested on: MOLT-4
Malme-3M = tested on: Malme-3M
NCI-H522 = tested on: NCI-H522
SF-295 = tested on: SF-295
SK-MEL-5 = tested on: SK-MEL-5
SK-OV-3 = tested on: SK-OV-3
U-251 = tested on: U-251
UO-31 = tested on: UO-31
HOP-92 = tested on: HOP-92
RXF 393 = tested on: RXF 393

Measured: GI50

CCOC(=O)CNC(=O)c1nc[nH]c1/N=N/N(C)C
inactive: A498 > 100 µM | COLO 205 > 100 µM | HCC 2998 > 100 µM | HOP-62 > 100 µM | HT-29 > 100 µM | KM12 > 100 µM | MOLT-4 > 100 µM | Malme-3M > 100 µM | NCI-H522 > 100 µM | SF-295 > 100 µM | SK-MEL-5 > 100 µM | SK-OV-3 > 100 µM | U-251 > 100 µM | UO-31 > 100 µM

CC1(C)OC2COC3(CNO)OC(C)(C)OC3C2O1 (centres undefined)
inactive: A498 > 100 µM | COLO 205 > 100 µM | HCC 2998 > 100 µM | HOP-62 > 100 µM | HOP-92 65.8 µM | HT-29 > 100 µM | KM12 > 100 µM | MOLT-4 > 100 µM | Malme-3M > 100 µM | RXF 393 > 100 µM | SF-295 > 100 µM | SK-MEL-5 > 100 µM | SK-OV-3 > 100 µM | U-251 > 100 µM | UO-31 > 100 µM

COc1ccc(OC)c2c(C(=O)O)c(Cc3ccccc3)ccc12
inactive: A498 > 100 µM | COLO 205 > 100 µM | HCC 2998 > 100 µM | HOP-62 > 100 µM | HT-29 > 100 µM | KM12 > 100 µM | MOLT-4 > 100 µM | Malme-3M > 100 µM | NCI-H522 > 100 µM | RXF 393 > 100 µM | SF-295 > 100 µM | SK-MEL-5 > 100 µM | SK-OV-3 > 100 µM | U-251 > 100 µM | UO-31 > 100 µM

CCN(CC)CCC(=O)/C=C/c1ccc(C)cc1
inactive: A498 11.2 µM | COLO 205 4.72 µM | HCC 2998 18.6 µM | HOP-62 25.7 µM | HOP-92 19.2 µM | HT-29 15.1 µM | KM12 3.18 µM | MOLT-4 11.7 µM | Malme-3M 19.3 µM | RXF 393 15.3 µM | SF-295 18.1 µM | SK-MEL-5 16.6 µM | SK-OV-3 20.7 µM | U-251 10.2 µM | UO-31 16.2 µM

[O-][S+]1c2ccccc2NC(c2ccc3ccccc3c2)CC1c1ccccc1 (centres undefined)
inactive: COLO 205 29.9 µM | HCC 2998 17.8 µM | HOP-62 40.6 µM | HT-29 22.3 µM | KM12 16.7 µM | MOLT-4 24 µM | Malme-3M 61.5 µM | NCI-H522 17.8 µM | RXF 393 14.8 µM | SF-295 19.1 µM | SK-MEL-5 17.5 µM | SK-OV-3 99.1 µM | UO-31 18 µM

CC(=O)Nc1ccc(/C=c2\sc3nnc(CCC(=O)Nc4ccccc4Cl)n3c2=O)cc1
inactive: HCC 2998 > 10 µM | HOP-62 54 µM | HOP-92 27.4 µM | HT-29 54.2 µM | KM12 20.9 µM | MOLT-4 19.4 µM | Malme-3M 38.8 µM | NCI-H522 18.7 µM | RXF 393 27.3 µM | SF-295 18.1 µM | SK-MEL-5 25 µM | SK-OV-3 > 100 µM | U-251 17.9 µM | UO-31 > 100 µM

C[Si](C)(C)CC(N)=O
inactive: COLO 205 > 100 µM | HCC 2998 > 100 µM | HOP-62 > 100 µM | HOP-92 > 100 µM | HT-29 > 100 µM | KM12 > 100 µM | MOLT-4 > 100 µM | Malme-3M > 100 µM | RXF 393 > 100 µM | SF-295 > 100 µM | SK-MEL-5 > 100 µM | SK-OV-3 > 100 µM | U-251 > 100 µM | UO-31 > 100 µM

O=c1cc(-c2ccccc2)[nH]c2c(Cl)cccc12
inactive: A498 14.2 µM | COLO 205 29.7 µM | HCC 2998 14.8 µM | HOP-62 7.26 µM | HT-29 20.8 µM | MOLT-4 8.34 µM | Malme-3M 64.9 µM | RXF 393 15.7 µM | SF-295 20.1 µM | SK-MEL-5 5.86 µM | U-251 87.5 µM | UO-31 34.2 µM

CC1CC2(S(=O)(=O)c3ccccc3)ON1CC2S(=O)(=O)c1ccccc1 (centres undefined)
inactive: COLO 205 > 100 µM | HCC 2998 > 100 µM | HOP-62 > 100 µM | HT-29 > 100 µM | KM12 > 100 µM | MOLT-4 > 100 µM | Malme-3M > 100 µM | NCI-H522 70.8 µM | RXF 393 > 100 µM | SF-295 > 100 µM | SK-OV-3 > 100 µM | U-251 > 100 µM | UO-31 > 100 µM

N#CC(C(=O)CCC(=O)Nc1ccc(Cl)cc1)c1ccccc1Cl (centres undefined)
inactive: A498 > 100 µM | COLO 205 > 100 µM | HOP-92 > 100 µM | KM12 43.1 µM | MOLT-4 > 100 µM | Malme-3M > 100 µM | NCI-H522 > 100 µM | SF-295 > 100 µM | SK-MEL-5 > 100 µM | SK-OV-3 > 100 µM | U-251 > 100 µM | UO-31 > 100 µM

CCCC(=O)c1c(NOC2OCC(OC(C)=O)C(OC(C)=O)C2OC(C)=O)nc(OC)n(C)c1=O (centres undefined)
inactive: A498 > 100 µM | COLO 205 > 100 µM | HCC 2998 > 100 µM | HOP-62 > 100 µM | HOP-92 > 100 µM | HT-29 > 100 µM | KM12 > 100 µM | MOLT-4 > 100 µM | Malme-3M > 100 µM | RXF 393 > 100 µM | SF-295 > 100 µM | SK-MEL-5 > 100 µM | SK-OV-3 > 100 µM | U-251 > 100 µM | UO-31 > 100 µM

Cc1cccc2c3ccc4c(c3n(C)c12)C(=O)C=CC4=O
inactive: COLO 205 > 100 µM | HCC 2998 > 100 µM | HOP-62 > 100 µM | HOP-92 > 100 µM | HT-29 > 100 µM | KM12 > 100 µM | MOLT-4 35.9 µM | Malme-3M > 100 µM | NCI-H522 > 100 µM | SF-295 > 100 µM | SK-OV-3 > 100 µM | UO-31 28.9 µM

COc1ccc(/C(Cl)=C(/c2ccc(O)cc2)c2ccc(OCCN(C)C)cc2)cc1
inactive: COLO 205 9.86 µM | HCC 2998 16.7 µM | HOP-62 13.6 µM | HT-29 2.13 µM | KM12 9.14 µM | Malme-3M 4.62 µM | NCI-H522 12.1 µM | RXF 393 5.12 µM | SF-295 4.78 µM | SK-MEL-5 4.28 µM | SK-OV-3 13.1 µM | U-251 11.2 µM | UO-31 7.03 µM

N#CC(C(=O)CCC(=O)Nc1ccc(Cl)c(Cl)c1)c1ccccc1 (centres undefined)
inactive: A498 > 100 µM | HCC 2998 > 100 µM | HOP-62 > 100 µM | HOP-92 > 100 µM | HT-29 > 100 µM | KM12 > 100 µM | MOLT-4 > 100 µM | Malme-3M > 100 µM | RXF 393 > 100 µM | SF-295 > 100 µM | SK-MEL-5 > 100 µM | U-251 > 100 µM | UO-31 > 100 µM

O=C1CC23CCCCCCCCCCC2(C1)CC(=O)C3 (centres undefined)
inactive: COLO 205 18.4 µM | HCC 2998 32.7 µM | HOP-92 21.1 µM | HT-29 18.1 µM | KM12 21.3 µM | MOLT-4 18.7 µM | Malme-3M 24.6 µM | NCI-H522 18.6 µM | RXF 393 25.4 µM | SF-295 35.3 µM | SK-MEL-5 17.4 µM | SK-OV-3 16.8 µM | U-251 22.8 µM | UO-31 20.8 µM
